# Values quoted from earlier work, collected in US6719977B1, “Methods to potentiate cancer therapies” (The General Hospital Corporation, priority 1998, dated 2004).
# How the values were obtained:
# [1] = infusion of collagenase
# [2] = collagenase treatment
# [3] = animal models
# [4] = animal models; remark: listed apart in the source
# [5] = infusion of relaxin; fluid-filled subcutaneous balloon
# [6] = animal models; remark: listed apart in the source
# fibroblast = conditions: a number of experimental settings
substance,measurement,setting,value
collagenase,penetration of small and large molecules into a tumor,[1],dramatically facilitates penetration
same,hydraulic conductance,[2],increases hydraulic conductance
relaxin,accumulation of collagen within implanted sponges,[3],prevent
same,parenchymal fibrosis accompanying oxidative pulmonary damage induced by bleomycin,[4],prevent
same,resistance to balloon expansion (pressure-volume relationship),[5],decreased the resistance to balloon expansion
same,formation of fibrotic capsules surrounding impenetrable foreign bodies,[6],prevent
γ-interferon [a pleiotypic cytokine produced by helper T cells],fibroblast proliferation and associated matrix deposition,fibroblast,inhibit fibroblast proliferation and associated matrix deposition
